ChEMBL document CHEMBL1201862, “PubChem BioAssay data set” (2004)
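Exposure lasted 48 hours, with cells grown in 96-well plates and compounds tested at five concentrations. GI50 is the concentration that inhibits growth by half.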 Activity calls are given as the source filed them. No stated cut-off is given here; in the data, active = GI50 up to about 1.1 µM and inactive = higher.

Tests used:
Test in all cases: DTP human tumour cell line panel, 48 h
786-0 = test system: 786-0
A498 = test system: A498
ACHN = test system: ACHN
LXFL 529 = test system: LXFL 529
SK-MEL-5 = test system: SK-MEL-5
T47D = test system: T47D
SNB-78 = test system: SNB-78
HOP-18 = test system: HOP-18

Structure (SMILES) | GI50 (786-0) | GI50 (A498) | GI50 (ACHN) | GI50 (LXFL 529) | GI50 (SK-MEL-5) | GI50 (T47D) | GI50 (SNB-78) | GI50 (HOP-18)
O=C1C2Cc3ccccc3CN2C(=O)N1CN1CCCCC1 (stereo unspecified) | > 100 µM (inactive) | > 100 µM (inactive) | > 100 µM (inactive) | > 100 µM (inactive) | > 100 µM (inactive) | – | – | –
Cc1c(OCc2ccccc2)c(=O)ccn1CCc1c[nH]c2ccccc12 | 33.9 µM (inactive) | – | > 100 µM (inactive) | – | 18.3 µM (inactive) | 17.3 µM (inactive) | – | –
COC(=O)C1=COC2OC3/C(=C\c4ccc(O)c(OC)c4)C(=O)OC34C=CC1C24 (stereo unspecified) | – | 27.7 µM (inactive) | 15.1 µM (inactive) | 13.5 µM (inactive) | 35.2 µM (inactive) | – | 15.2 µM (inactive) | –
COc1cc(C2c3cc4c(cc3[C@@H](Nc3ccc(N5CCOCC5)cc3)C3COC(=O)[C@H]23)OCO4)cc(OC)c1O (stereo partly specified) | – | 1.01 µM (active) | – | – | 1.04 µM (active) | – | – | 977 nM (active)
O=C1C(Cl)=C(N2CCC[C@H]2CO)C(=O)c2c(O)ccc(O)c21 | 2.03 µM (inactive) | > 10 µM (inactive) | 2.03 µM (inactive) | – | 1.73 µM (inactive) | 2.11 µM (inactive) | – | –
CCOC(=O)/C(C(=O)Nc1ccc(Cl)cc1)=C(/N)N1CCCC1 | > 100 µM (inactive) | 64.4 µM (inactive) | 45.6 µM (inactive) | – | – | > 100 µM (inactive) | – | –
COC(=O)C1(c2ccc(N(C)C)cc2OC)CCCN(C(=O)Oc2ccccc2[N+](=O)[O-])CCc2c1[nH]c1ccccc21 (stereo unspecified) | – | > 100 µM (inactive) | – | – | > 100 µM (inactive) | > 100 µM (inactive) | – | –
COC(=O)C1=C(O)C(C(=O)OC)[C@]2(O)[C@@H](C(=O)OC)[C@H]1C[C@@H](c1ccccc1)[C@@H]2C(=O)OC (stereo partly specified) | – | 17.2 µM (inactive) | 17.9 µM (inactive) | – | – | 27.6 µM (inactive) | – | –
CCOC(=O)c1ccc(N[C@@H]2c3cc4c(cc3C(c3cc(OC)c(O)c(OC)c3)[C@H]3C(=O)OCC32)OCO4)cc1 (stereo partly specified) | – | 0.244 µM (active) | 0.131 µM (active) | 4.55 µM (inactive) | 0.505 µM (active) | – | 4.1 µM (inactive) | –
COc1cc(CCCl)c(CC2=NCCc3cc(OC)c(OC)cc32)cc1OC | – | – | > 100 µM (inactive) | – | 67.8 µM (inactive) | > 100 µM (inactive) | – | –
CN(CCCCCl)P(=O)(OCC1=CC(=O)c2ccccc2C1=O)OC[C@H]1O[C@@H](n2cc(F)c(=O)[nH]c2=O)C[C@@H]1O (stereo partly specified) | – | – | < 0.01 µM (active) | – | 0.0334 µM (active) | – | – | –
COc1cc2cc(C(=O)N3CC(CCl)c4c3cc(N(C)C)c3ccccc43)[nH]c2c(OC)c1OC (stereo unspecified) | < 0.01 µM (active) | 0.0123 µM (active) | < 0.01 µM (active) | – | < 0.01 µM (active) | < 0.01 µM (active) | – | –
O=C1c2ccccc2-c2nnc(-c3ccc([N+](=O)[O-])cc3)cc21 | > 10 µM (inactive) | > 10 µM (inactive) | > 10 µM (inactive) | – | > 10 µM (inactive) | > 10 µM (inactive) | – | –
O=C1Oc2ccc([N+](=O)[O-])cc2N/C1=C\C(=O)c1ccccc1 | 52.6 µM (inactive) | > 100 µM (inactive) | > 100 µM (inactive) | – | > 100 µM (inactive) | 97.5 µM (inactive) | – | –
COC(CN(C(C)=O)C1CCC2(SCCS2)c2[nH]c3ccccc3c21)OC (stereo unspecified) | > 100 µM (inactive) | > 100 µM (inactive) | > 100 µM (inactive) | – | > 100 µM (inactive) | – | – | –
Cc1ccc2c(O)cc(-c3cc(C)sc3C)nc2n1 | 3.93 µM (inactive) | 4.78 µM (inactive) | 8.13 µM (inactive) | – | 0.708 µM (active) | 2.67 µM (inactive) | – | –
COc1cc(C)cc2c1C(=O)C(NC(C)=O)=CC2=O | > 100 µM (inactive) | > 100 µM (inactive) | > 100 µM (inactive) | – | > 100 µM (inactive) | 59.3 µM (inactive) | – | –
CCCCCc1cccc(=O)o1 | > 100 µM (inactive) | 57.9 µM (inactive) | > 100 µM (inactive) | – | > 100 µM (inactive) | > 100 µM (inactive) | – | –
